Assay results: patent publication US4140707A, “Malonato platinum anti-tumor compounds” (priority 1977, dated 1979)

Legend:
Sarcoma 180 [1] = test: Large Sarcoma 180 regressions (Table II), injection day 8, observed approximately 60 days; type: in vivo, female Swiss white mice; details: single i.p. day 8, H2O solution
Description: In addition to the day 1 injections described above, in a number of cases injections were delayed until day 8 of tumor growth. In these cases the tumor was usually at least larger than 1/2 gm, as estimated by palpation. The animals were then injected and observed for a period of approximately 60 days. Activity was measured by the number of animals whose tumors had regressed to the vanishing point, while still allowing the animal to survive for this time period. Such test results are described in TABLE II below.

[2] = system: Walker 256 Carcinosarcoma; test: Confirmatory antitumor activity, Walker 256 Carcinosarcoma (Table III); type: in vivo, Rat; details: i.p.
Description: (§1) Confirmatory tests of antitumor activity against the Walker 256 Circinosarcoma in rats, and the ADJ/PC6A tumor in mice were conducted. The initial test results are shown in Table III and confirm the potent action of the compounds of the invention against these other tumor systems.

L1210 = test: Confirmatory antitumor activity at the National Cancer Institute, L1210 (Table IV); type: in vivo, Mice
Description: Samples of the malonato diammine and malonato ethylene diamino complexes of platinum(II) were submitted to the Drug Research and Development Branch of the National Cancer Institute for screening for antitumor activity against the L1210 tumor in mice. They confirm the activity of the compounds of the invention.

Sarcoma 180 [3] = test: Antitumor activity, solid Sarcoma 180 (Table I), T/C tumor weight ratio, sacrifice day 10; type: in vivo, female Swiss white mice
Description: The compounds of the invention were tested for anti-tumor activity using our standard screening tumor, solid sarcoma 180 tumer in female Swiss white mice, following standard protocols for this testing as set by the National Cancer Institute. (Cancer Chemotherapy Rep., 25(1962)).
For these tests an S 180 tumor taken from a sacrificed mouse was disected free of superfluous tissue and cut under sterile conditions into approximately 10 milligram size pieces. These tissue pieces were then implanted by trocar in the left axillary region, subcutaneously, in new mice. The mice were, on the average, approximately four weeks old and weighed 18-20 grams. Taking day 0 as the day of implant, the animals were sacrificed on day 10. The tumors were excised and weighed and the ratio of the weights of the tumors in mice in the treated animals to the control set of animals was obtained. This ratio, multiplied by 100, is given as the T/C ratio in Table I.
For the first set of tests the coordination compound was freshly dissolved in sterile distilled water and injected intraperitoneally on day 1 into each of the test mice. The volume of the injection was usually 1/2 ml. In some cases, in order to get an active dose into the animal where the chemical was not soluble in this amount of solvent, a fine dispersion was prepared of the dose needed for the test. Thus, some of our test results were obtained on animals where a slurry of the compound was injected. These are so noted in Table I below. In addition, for some of the compounds, there was injected about 1 ml of solution, either in one single injection, or in 2 injections given a few hours apart of 1/2 ml each. These injections were initially given in 4 different dose levels for each new compound with 6 mice in each dose level. The tests covered a dose range from a low ineffective dose, to an upper dose level which produced some deaths within the time period of the experiment.

ADJ/PC6A = test: Confirmatory antitumor activity, ADJ/PC6A (Table III); type: in vivo, Mouse; details: i.p.
Description: as §1

[4] = Hydrolysis by U.V./vis spectral and conductivity studies; type: physicochemical
Description: *U.V./via spectral and conductivity studies have shown that hydrolysis is negligible.

[5] = 10 mg/kg, single injection day 1 in oil
[6] = 20 mg/kg, single injection day 1 in oil
[7] = 40 mg/kg, single injection day 1 in oil
[8] = 80 mg/kg, single injection day 1 in oil
[9] = 10 mg/kg, single i.p. day 1, solution in H2O
[10] = 20 mg/kg, single i.p. day 1, solution in H2O
[11] = 40 mg/kg, single i.p. day 1, solution in H2O
[12] = 45 mg/kg, single i.p. day 1, solution in H2O
[13] = 50 mg/kg, single i.p. day 1, solution in H2O
[14] = 55 mg/kg, single i.p. day 1, solution in H2O
[15] = 60 mg/kg, single i.p. day 1, solution in H2O
[16] = 60 mg/kg, single i.p. day 1, vehicle not noted
[17] = 80 mg/kg, single i.p. day 1, solution in H2O
[18] = 80 mg/kg, single i.p. day 1, vehicle not noted
[19] = 100 mg/kg, single i.p. day 1, vehicle not noted
[20] = 120 mg/kg, single i.p. day 1, vehicle not noted
[21] = dose 4, single injection day 25 in oil
[22] = dose 20, single injection day 25 in oil
[23] = dose 100, single injection day 25 in oil
[24] = 4 mg/kg, i.p. daily for days 1-10, solution in H2O
[25] = 5 mg/kg, i.p. daily for days 1-10, solution in H2O
[26] = 6 mg/kg, i.p. daily for days 1-10, solution in H2O
[27] = 7 mg/kg, i.p. daily for days 1-10, solution in H2O
[28] = 10 mg/kg, single i.p. day 1, slurry in H2O
[29] = 15 mg/kg, single i.p. day 1, slurry in H2O
[30] = 20 mg/kg, single i.p. day 1, slurry in H2O
[31] = 25 mg/kg, single i.p. day 1, slurry in H2O
[32] = 30 mg/kg, single i.p. day 1, slurry in H2O
[33] = 50 mg/kg, single i.p. day 1, slurry in H2O

NCCN.O=C([O-])CC(=O)[O-].[Pt+2] [malonatoethylenediamineplatinum (II)]
Deaths (Sarcoma 180 [1]; 40 mg/kg): 3
Total Number of Regressions (Sarcoma 180 [1]; 40 mg/kg): 3
Deaths (Sarcoma 180 [1]; 45 mg/kg): 5
Total Number of Regressions (Sarcoma 180 [1]; 45 mg/kg): 1
Deaths (Sarcoma 180 [1]; 50 mg/kg): 4
Total Number of Regressions (Sarcoma 180 [1]; 50 mg/kg): 2
Deaths (Sarcoma 180 [1]; 60 mg/kg): 3
Total Number of Regressions (Sarcoma 180 [1]; 60 mg/kg): 3
% Inhibition [2, 5]: 1%
Deaths [2, 5]: 0
% Inhibition [2, 6]: 25%
Deaths [2, 6]: 0
% Inhibition [2, 7]: 100%
Deaths [2, 7]: 0
Deaths [2, 8]: 0
% Inhibition ([2]; dose 80, single injection day 1 in oil): 100%
Deaths ([2]; dose 160, single injection day 1 in oil): all
% Increase in Lifespan (L1210; 16.5 mg/kg, i.p. daily days 1-9, repeat test): 160%
% Increase in Lifespan (L1210; 25 mg/kg, i.p. daily days 1-9): 160%
No. of Deaths (Sarcoma 180 [3]; [9]): 0
T/C (Sarcoma 180 [3]; [9]): 88
No. of Deaths (Sarcoma 180 [3]; [10]): 0
T/C (Sarcoma 180 [3]; [10]): 58
No. of Deaths (Sarcoma 180 [3]; [11]): 0
T/C (Sarcoma 180 [3]; [11]): 18
No. of Deaths (Sarcoma 180 [3]; [12]): 0
T/C (Sarcoma 180 [3]; [12]): 49
No. of Deaths (Sarcoma 180 [3]; [13]): 0
T/C (Sarcoma 180 [3]; [13]): 35
No. of Deaths (Sarcoma 180 [3]; [14]): 0
T/C (Sarcoma 180 [3]; [14]): 38
No. of Deaths (Sarcoma 180 [3]; [15]): 3/6
T/C (Sarcoma 180 [3]; [15]): 15
No. of Deaths (Sarcoma 180 [3]; [16]): 0
T/C (Sarcoma 180 [3]; [16]): 80
No. of Deaths (Sarcoma 180 [3]; [17]): 3/6
T/C (Sarcoma 180 [3]; [17]): 24
No. of Deaths (Sarcoma 180 [3]; [18]): 0
T/C (Sarcoma 180 [3]; [18]): 138
No. of Deaths (Sarcoma 180 [3]; [19]): 0
T/C (Sarcoma 180 [3]; [19]): 85
No. of Deaths (Sarcoma 180 [3]; [20]): 0
T/C (Sarcoma 180 [3]; [20]): 50
% Inhibition (ADJ/PC6A; [21]): 1.3%
Deaths (ADJ/PC6A; [21]): 0
% Inhibition (ADJ/PC6A; [22]): 94%
Deaths (ADJ/PC6A; [22]): 0
% Inhibition (ADJ/PC6A; [23]): 100%
Deaths (ADJ/PC6A; [23]): 0
Deaths (ADJ/PC6A; dose 500, single injection day 25 in oil): all

O=C(O)CC(=O)O.[NH2-].[NH2-].[Pt+2] [Malonatodiammineplatinum(II)]
hydrolysis [4]: negligible
Deaths (Sarcoma 180 [1]; 14 mg/kg): 4
Total Number of Regressions (Sarcoma 180 [1]; 14 mg/kg): 2
Deaths (Sarcoma 180 [1]; 16 mg/kg): 3
Total Number of Regressions (Sarcoma 180 [1]; 16 mg/kg): 3
Deaths (Sarcoma 180 [1]; 18 mg/kg): 2
Total Number of Regressions (Sarcoma 180 [1]; 18 mg/kg): 4
Deaths (Sarcoma 180 [1]; 20 mg/kg): 1
Total Number of Regressions (Sarcoma 180 [1]; 20 mg/kg): 5
% Inhibition [2, 5]: 100%
Deaths [2, 5]: 0
% Inhibition [2, 6]: 100%
Deaths [2, 6]: 0
% Inhibition [2, 7]: 100%
Deaths [2, 7]: 0
Deaths [2, 8]: 0
No. of Deaths (Sarcoma 180 [3]; [24]): 0
T/C (Sarcoma 180 [3]; [24]): 54
No. of Deaths (Sarcoma 180 [3]; [25]): 0
T/C (Sarcoma 180 [3]; [25]): 56
No. of Deaths (Sarcoma 180 [3]; [26]): 0
T/C (Sarcoma 180 [3]; [26]): 23
No. of Deaths (Sarcoma 180 [3]; [27]): 0
T/C (Sarcoma 180 [3]; [27]): 12
No. of Deaths (Sarcoma 180 [3]; [28]): 0
T/C (Sarcoma 180 [3]; [28]): 76
No. of Deaths (Sarcoma 180 [3]; [29]): 0
T/C (Sarcoma 180 [3]; [29]): 38
No. of Deaths (Sarcoma 180 [3]; [30]): 0
T/C (Sarcoma 180 [3]; [30]): 64
No. of Deaths (Sarcoma 180 [3]; [31]): 0
T/C (Sarcoma 180 [3]; [31]): 31
No. of Deaths (Sarcoma 180 [3]; [32]): 1/6
T/C (Sarcoma 180 [3]; [32]): 7
No. of Deaths (Sarcoma 180 [3]; 40 mg/kg, single i.p. day 1, slurry in H2O): 6/6
No. of Deaths (Sarcoma 180 [3]; [33]): 5/6
T/C (Sarcoma 180 [3]; [33]): 1
No. of Deaths (Sarcoma 180 [3]; 60 mg/kg, single i.p. day 1, slurry in H2O): 6/6
